{
  "source": "patent US8552035B2",
  "about": "“Phenanthrenone compounds, compositions and methods” (Pfizer Inc., priority 2008, dated 2013)",
  "key": {"[1]": {"tested_on": "IL-1β", "assay": "LPS-induced human whole blood, IL-1β release", "assay_type": "cell-based", "procedure": "(§1) Venous blood from human donors was collected as 10 ml aliquots in tubes containing sodium heparin (BD Vacutainer from Becton Dickinson and Company, Franklin Lakes, N.Y.). Blood was added to sterile polystyrene round bottom 96-well tissue culture plates (Corning Costar) at 180 Blood was placed in a humidified 37 C incubator with 5% CO2 while compounds were prepared (nearly 60 minutes).\n(§2) Compounds were prepared from 10 mM stock solutions in dimethylsulfoxide (DMSO, Sigma-Aldrich). Stock compound was diluted in DMSO to give appropriate starting concentration then diluted serially 1/3 in DMSO (i.e. 15 μl compound+30 μl DMSO), followed by diluting each serial dilution 1/167 into vehicle solution (2% DMSO in phosphate buffered saline (Dulbecco's Phosphate Buffered Saline without calcium chloride without magnesium chloride, Invitrogen Corporation, Carlsbad Calif.)). Compound or vehicle was added to blood in 10 μl aliquots as triplicates, omitting the outside wells to minimize possible edge effects. The final highest concentration of each compound in the assay ranged from 3 to 0.3 μM. Final DMSO concentration in the assay was 0.1%. The plate containing the samples was gently vortexed to mix and replaced in the incubator. LPS stock (E. coli serotype 0111:B4, Sigma-Aldrich), stored in aliquots of 100 μg/ml in RPMI at −20° C., was diluted […] in RPMI to make a working stock solution. After 60 minutes of incubation, 10 μl of the prepared LPS working stock was added to the blood to a final concentration of 100 ng/ml. Wells to be used as negative control received RPMI media with no LPS. The plate was again gently vortexed and the plates incubated overnight for 22 hours. Following incubation, the blood was centrifuged at 1500×g for 5 minutes and the plasma removed to either freeze at −20° C. or assay for cytokine release.\n(§3) IL-1β, IFNγ and TNFα protein levels were measured using Meso Scale assay kits (Meso Scale Discovery, Gaithersburg, Md., U.S.A.). Reagents were allowed to come to room temperature. Meso Scale plates were blocked with 150 μl of Meso Scale Block B diluent, gently shaking at room temperature for 60 minutes. Plates were washed 3× with wash buffer (PBS, Invitrogen Corporation, with 0.05% Tween-20, Sigma-Aldrich). Calibrators for standard curves were prepared in human plasma/serum assay diluent as a 1/5 serial dilution to achieve final concentrations ranging from 50000 pg/ml to 3.2 pg/ml. Samples were added at 10 to 20 μl/well and calibrators were added at 20 μl/well then incubated at room temperature with gentle shaking for 2 hours. Plates were again washed 3× with wash buffer. Detection antibody was diluted in human plasma/serum antibody diluent to 1 μg/ml and added to the plate at 20 μl/well. Plates were incubated as before for 2 hours and washed again. Read Buffer T (4×) was diluted 1:1 with mqH20 to 2× concentration and 150 μl added to each well. Plates were read on the SECTOR Imager 6000 (Meso Scale Discovery) to generate raw signal values.\n(§4) Individual sample signal values were compared to positive and negative controls (vehicle treated blood with LPS and vehicle treated blood without LPS, respectively) to generate % inhibition. Triplicate values were averaged for each donor. The values for three or four donors were averaged and graphed using 4-parameter fit curves in the LabStats plug-in for the Microsoft Excel application."}, "[2]": {"tested_on": "LPS-induced TNFα", "assay": "28-day mouse side-effect model, LPS-induced serum TNFα suppression", "assay_type": "in vivo", "conditions": "oral gavage 28 days, LPS challenge", "procedure": "(§5) 10-12 week old female Swiss Webster mice (Taconic, Germantown, N.Y., U.S.A.) weighing 27-29 grams are used in accordance with the guidelines of the Institutional Animal Care and Use Committee and in accordance with NIH guidelines on laboratory animal welfare. Mice are acclimated to the Pfizer animal facility for 3-7 days prior to being placed on study. Prednisolone and DAGR compounds are administered by oral gavage for a total of 28 days. Each treatment group generally contains 8-10 mice. To establish a dosing regimen for the studies, a pilot pharmacodynamic time course experiment is conducted to quantify TNFa repression after a single ED80 dose (determined from the acute LPS endotoxemia mouse model). […] DAGR compounds vary in their required frequency of doses.\n(§6) Body weights are measured on the first and last day of each experiment. Blood samples are obtained after ˜3 weeks of dosing for steady-state pharmacokinetic analysis. To assess compound effects on LPS-induced TNF-a, all mice receive an intraperitoneal injection of LPS (Salmonella Typhosa, Sigma, St. Louis, L-7895) 2.5 hr after the last dose on day 28. Mice are sacrificed 90 min. after LPS administration. Serum samples are assayed for osteocalcin and TNFa using the Linco multiplex assay (St. Charles, Mo.) and Luminex 100 (Austin, Tex.). Samples are diluted 1:20 and the assay is run according to manufacturer's instructions. An osteocalcin standard is purchased separately from Biomedical Technologies Incorporated (Stoughton, Mass.). Serum insulin is measured to assess compound effects on insulin resistance. Insulin was measured using the UltraSensitive Mouse EIA kit from Alpco Diagnostics (Salem, N.H.) following the manufacturer's protocol.\n(§7) ED50 and ED80 values are obtained for the various parameters using four-parameter logistic fits of data. For each experiment/dose group, outliers are detected by calculating the number of standard deviations each mouse's value was from the mean of their group and then dividing by the standard deviation of the group. The means and standard deviations used in this calculation omitted the value being examined so that, if it were an outlier, it would have no influence. If the value being examined is more than 2.5 standard deviations from the mean, it was not used in the rest of the calculations.\n(§8) Percent inhibition values are then calculated for each animal using the means of the vehicle and 10 mpk prednisone control groups. The individual mouse percent inhibition values are then fit to a four-parameter logistic model using the area under curve mean for each group. Since all four parameters are estimated and the lower plateau is not fixed at 0% and the upper plateau was not fixed at 100%, the ED50 and ED80 values are calculated by using an inverse calibration formula for a response equal to 50% or 80%. The designation “nd” means not determined."}, "[3]": {"tested_on": "serum insulin", "assay": "28-day mouse side-effect model, serum insulin", "assay_type": "in vivo", "conditions": "oral gavage 28 days", "procedure": "as §5, §6, §7, §8"}, "[4]": {"tested_on": "TNFα", "assay": "LPS-induced human whole blood, TNFα release", "assay_type": "cell-based", "procedure": "as §1, §2, §3, §4"}, "[5]": {"conditions": "Homo sapiens, 0.137174 nM, mean of donors"}, "[6]": {"conditions": "Homo sapiens, 0.411523 nM, mean of donors"}, "[7]": {"conditions": "Homo sapiens, 1.234568 nM, mean of donors"}, "[8]": {"conditions": "Homo sapiens, 3.703704 nM, mean of donors"}, "[9]": {"conditions": "Homo sapiens, 11.11111 nM, mean of donors"}, "[10]": {"conditions": "Homo sapiens, 33.33333 nM, mean of donors"}, "[11]": {"conditions": "Homo sapiens, 100 nM, mean of donors"}, "[12]": {"conditions": "Homo sapiens, 300 nM, mean of donors"}, "[13]": {"conditions": "ex vivo LPS-stimulated human whole blood, extent of inhibition, concentration not given"}},
  "data": [
    {"compound": "Cc1ncccc1NC(=O)c1ccc2c(c1)C(=O)C[C@@H]1C[C@@](O)(c3ccccc3)[C@](C)(O)C[C@@]21Cc1ccccc1", "note": "[Example 1, (4bR,6R,7R,8aS)-4b-benzyl-6,7-dihydroxy-6-methyl-N-(2-methylpyridin-3-yl)-10-oxo-7-phenyl-4b,5,6,7,8,8a,9,10-octahydrophenanthrene-2-carboxamide]", "values": [
      {"measurement": "inhibition at 0.000137174 µM", "setting": "[1]; [5]", "result": -0.94, "unit": "%"},
      {"measurement": "inhibition at 0.000411523 µM", "setting": "[1]; [6]", "result": -1.08, "unit": "%"},
      {"measurement": "inhibition at 0.00123457 µM", "setting": "[1]; [7]", "result": 1.18, "unit": "%"},
      {"measurement": "inhibition at 0.0037037 µM", "setting": "[1]; [8]", "result": 5.14, "unit": "%"},
      {"measurement": "inhibition at 0.0111111 µM", "setting": "[1]; [9]", "result": 15.4, "unit": "%"},
      {"measurement": "inhibition at 0.0333333 µM", "setting": "[1]; [10]", "result": 26.4, "unit": "%"},
      {"measurement": "inhibition at 0.1 µM", "setting": "[1]; [11]", "result": 37.6, "unit": "%"},
      {"measurement": "inhibition at 0.3 µM", "setting": "[1]; [12]", "result": 38, "unit": "%"},
      {"measurement": "level of inhibition of IL-1", "setting": "[1]; [13]", "result": 38, "unit": "%"},
      {"measurement": "ED50", "setting": "[2]; 672 h, read-out: TNFα Suppression (ED50 dose)", "result": 0.029, "unit": "mg/kg"},
      {"measurement": "TNFα Suppression (ED80 dose)", "setting": "[2]", "result": 0.11},
      {"measurement": "ED50 at 28 days", "setting": "[3]; female, Swiss Webster, read-out: Insulin (ED50 dose)", "result": 1.28, "unit": "mg/kg"},
      {"measurement": "Insulin (ED80 dose)", "setting": "[3]", "result": 5.89},
      {"measurement": "inhibition at 0.000137174 µM", "setting": "[4]; [5]", "result": 0.604, "unit": "%"},
      {"measurement": "inhibition at 0.000411523 µM", "setting": "[4]; [6]", "result": -3.62, "unit": "%"},
      {"measurement": "inhibition at 0.00123457 µM", "setting": "[4]; [7]", "result": 0.811, "unit": "%"},
      {"measurement": "inhibition at 0.0037037 µM", "setting": "[4]; [8]", "result": 7.09, "unit": "%"},
      {"measurement": "inhibition at 0.0111111 µM", "setting": "[4]; [9]", "result": 18.1, "unit": "%"},
      {"measurement": "inhibition at 0.0333333 µM", "setting": "[4]; [10]", "result": 30.7, "unit": "%"},
      {"measurement": "inhibition at 0.1 µM", "setting": "[4]; [11]", "result": 42.2, "unit": "%"},
      {"measurement": "inhibition at 0.3 µM", "setting": "[4]; [12]", "result": 42.8, "unit": "%"},
      {"measurement": "level of inhibition of TNF", "setting": "[4]; [13]", "result": 43, "unit": "%"}
    ]}
  ]
}
